{"source": "paper PMC5458052", "about": "(Nature Communications, 2017)", "key": {"[1]": {"system": "P. falciparum strains (sensitive and resistant)", "experiment": "microbe, parasite or virus in culture", "type": "cell-based", "conditions": "Plasmodium falciparum"}, "Cav1.2 channel": {"target": "Cav1.2 channel (Homo sapiens, UniProt Q13936)", "sequence (Q13936 whole entry)": "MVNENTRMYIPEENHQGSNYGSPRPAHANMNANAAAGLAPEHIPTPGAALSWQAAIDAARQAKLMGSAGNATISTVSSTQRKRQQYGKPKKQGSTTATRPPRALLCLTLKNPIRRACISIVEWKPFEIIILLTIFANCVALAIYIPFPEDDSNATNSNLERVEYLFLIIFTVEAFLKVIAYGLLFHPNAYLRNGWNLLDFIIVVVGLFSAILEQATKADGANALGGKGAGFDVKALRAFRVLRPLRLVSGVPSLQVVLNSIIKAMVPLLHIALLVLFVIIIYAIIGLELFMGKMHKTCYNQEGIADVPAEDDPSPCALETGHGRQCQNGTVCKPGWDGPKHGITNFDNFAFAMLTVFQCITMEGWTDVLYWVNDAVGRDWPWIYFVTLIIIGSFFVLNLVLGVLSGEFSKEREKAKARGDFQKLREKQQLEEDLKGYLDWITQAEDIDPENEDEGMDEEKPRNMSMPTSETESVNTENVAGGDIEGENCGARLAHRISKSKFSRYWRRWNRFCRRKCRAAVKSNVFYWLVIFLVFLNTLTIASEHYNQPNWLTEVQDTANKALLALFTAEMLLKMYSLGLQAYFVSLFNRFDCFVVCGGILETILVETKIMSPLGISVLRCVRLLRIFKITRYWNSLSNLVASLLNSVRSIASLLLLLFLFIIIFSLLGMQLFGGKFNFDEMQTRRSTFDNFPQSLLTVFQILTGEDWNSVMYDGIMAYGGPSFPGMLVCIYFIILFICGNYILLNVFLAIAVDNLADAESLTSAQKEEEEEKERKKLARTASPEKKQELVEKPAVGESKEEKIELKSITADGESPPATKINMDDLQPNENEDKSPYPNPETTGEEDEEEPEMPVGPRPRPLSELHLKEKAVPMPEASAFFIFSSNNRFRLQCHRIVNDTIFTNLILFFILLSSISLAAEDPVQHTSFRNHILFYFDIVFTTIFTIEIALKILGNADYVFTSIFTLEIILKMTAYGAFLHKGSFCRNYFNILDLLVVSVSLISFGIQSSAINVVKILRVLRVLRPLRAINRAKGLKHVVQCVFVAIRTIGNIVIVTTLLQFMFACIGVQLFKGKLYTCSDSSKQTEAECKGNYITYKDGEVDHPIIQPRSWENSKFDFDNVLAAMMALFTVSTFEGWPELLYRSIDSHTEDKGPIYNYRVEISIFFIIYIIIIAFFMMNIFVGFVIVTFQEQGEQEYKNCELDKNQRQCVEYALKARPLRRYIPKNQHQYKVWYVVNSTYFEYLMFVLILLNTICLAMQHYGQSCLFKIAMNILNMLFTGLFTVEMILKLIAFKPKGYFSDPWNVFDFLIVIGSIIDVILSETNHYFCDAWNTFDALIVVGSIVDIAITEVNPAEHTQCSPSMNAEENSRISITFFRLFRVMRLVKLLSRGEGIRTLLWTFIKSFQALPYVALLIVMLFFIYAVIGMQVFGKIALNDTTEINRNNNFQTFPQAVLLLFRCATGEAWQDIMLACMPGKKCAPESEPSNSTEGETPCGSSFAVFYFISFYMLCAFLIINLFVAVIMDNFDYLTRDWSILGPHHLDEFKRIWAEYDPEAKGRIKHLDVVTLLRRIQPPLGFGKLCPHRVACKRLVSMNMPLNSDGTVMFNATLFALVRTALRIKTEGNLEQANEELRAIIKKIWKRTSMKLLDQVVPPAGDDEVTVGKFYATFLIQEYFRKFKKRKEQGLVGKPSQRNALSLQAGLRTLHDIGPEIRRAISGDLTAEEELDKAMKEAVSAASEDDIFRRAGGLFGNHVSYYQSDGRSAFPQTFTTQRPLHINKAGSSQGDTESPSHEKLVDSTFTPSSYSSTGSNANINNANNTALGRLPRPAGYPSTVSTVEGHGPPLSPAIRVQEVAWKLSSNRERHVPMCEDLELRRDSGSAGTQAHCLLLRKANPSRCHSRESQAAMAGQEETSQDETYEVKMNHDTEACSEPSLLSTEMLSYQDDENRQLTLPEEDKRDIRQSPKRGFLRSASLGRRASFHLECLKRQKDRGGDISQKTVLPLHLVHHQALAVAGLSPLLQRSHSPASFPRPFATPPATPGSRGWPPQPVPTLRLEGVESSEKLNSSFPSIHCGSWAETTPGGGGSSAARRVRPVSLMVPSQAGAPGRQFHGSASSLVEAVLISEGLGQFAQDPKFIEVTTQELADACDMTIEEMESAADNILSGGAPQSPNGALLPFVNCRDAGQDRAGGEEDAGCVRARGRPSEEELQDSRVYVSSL", "sequence (Q08289 whole entry partner)": "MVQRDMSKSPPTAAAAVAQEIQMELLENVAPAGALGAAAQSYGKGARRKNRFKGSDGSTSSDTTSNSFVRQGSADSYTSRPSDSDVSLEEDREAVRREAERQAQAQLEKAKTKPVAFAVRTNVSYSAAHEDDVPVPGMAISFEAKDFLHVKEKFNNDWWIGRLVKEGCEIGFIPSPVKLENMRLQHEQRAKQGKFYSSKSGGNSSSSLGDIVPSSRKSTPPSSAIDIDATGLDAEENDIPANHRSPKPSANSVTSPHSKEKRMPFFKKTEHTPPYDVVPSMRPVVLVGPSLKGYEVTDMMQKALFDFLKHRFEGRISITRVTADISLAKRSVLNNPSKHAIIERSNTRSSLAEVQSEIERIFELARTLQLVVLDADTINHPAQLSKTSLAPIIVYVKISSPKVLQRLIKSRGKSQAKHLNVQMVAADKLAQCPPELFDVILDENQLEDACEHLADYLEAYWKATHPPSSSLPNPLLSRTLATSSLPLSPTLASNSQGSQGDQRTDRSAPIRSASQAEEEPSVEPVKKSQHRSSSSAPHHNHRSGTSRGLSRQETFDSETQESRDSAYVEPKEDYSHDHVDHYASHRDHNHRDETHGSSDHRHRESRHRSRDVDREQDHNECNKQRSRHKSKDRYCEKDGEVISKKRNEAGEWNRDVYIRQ", "sequence (P54289 25-946 partner limits assumed)": "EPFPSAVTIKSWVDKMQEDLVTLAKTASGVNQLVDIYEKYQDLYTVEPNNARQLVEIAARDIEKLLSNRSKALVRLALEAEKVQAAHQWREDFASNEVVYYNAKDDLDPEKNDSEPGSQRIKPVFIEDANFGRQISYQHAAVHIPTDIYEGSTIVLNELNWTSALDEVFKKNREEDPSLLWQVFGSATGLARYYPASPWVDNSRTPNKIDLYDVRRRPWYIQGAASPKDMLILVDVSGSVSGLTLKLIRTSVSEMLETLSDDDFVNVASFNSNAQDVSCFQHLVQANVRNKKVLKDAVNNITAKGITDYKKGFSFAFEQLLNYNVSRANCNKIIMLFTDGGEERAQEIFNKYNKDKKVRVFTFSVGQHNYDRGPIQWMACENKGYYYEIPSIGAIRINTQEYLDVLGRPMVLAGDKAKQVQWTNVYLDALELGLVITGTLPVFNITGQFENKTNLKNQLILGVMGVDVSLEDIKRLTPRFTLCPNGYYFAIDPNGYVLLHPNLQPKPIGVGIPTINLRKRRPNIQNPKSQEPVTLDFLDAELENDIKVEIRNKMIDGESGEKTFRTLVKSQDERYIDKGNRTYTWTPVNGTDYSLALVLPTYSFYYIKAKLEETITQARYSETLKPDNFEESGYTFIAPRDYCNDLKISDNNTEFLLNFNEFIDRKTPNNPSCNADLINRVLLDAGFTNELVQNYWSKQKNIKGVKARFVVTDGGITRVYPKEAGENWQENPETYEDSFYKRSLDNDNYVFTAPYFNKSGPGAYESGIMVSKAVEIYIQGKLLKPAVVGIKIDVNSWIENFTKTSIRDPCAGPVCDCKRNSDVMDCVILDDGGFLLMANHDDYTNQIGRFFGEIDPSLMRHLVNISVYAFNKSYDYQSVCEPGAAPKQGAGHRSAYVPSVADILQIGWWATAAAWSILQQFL", "sequence (P54289 947-1103 partner limits assumed)": "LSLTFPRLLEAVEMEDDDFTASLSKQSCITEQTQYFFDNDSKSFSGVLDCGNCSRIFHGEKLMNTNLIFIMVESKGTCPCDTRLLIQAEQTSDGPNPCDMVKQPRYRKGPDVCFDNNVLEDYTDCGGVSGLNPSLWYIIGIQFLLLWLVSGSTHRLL", "experiment": "Cav1.2 electrophysiology assay (IonWorks HT, CHO cells)", "type": "cell-based", "conditions": "at >100 μM"}, "CYP2C19": {"target": "CYP2C19 (Homo sapiens, UniProt P33261)", "sequence (P33261 whole entry)": "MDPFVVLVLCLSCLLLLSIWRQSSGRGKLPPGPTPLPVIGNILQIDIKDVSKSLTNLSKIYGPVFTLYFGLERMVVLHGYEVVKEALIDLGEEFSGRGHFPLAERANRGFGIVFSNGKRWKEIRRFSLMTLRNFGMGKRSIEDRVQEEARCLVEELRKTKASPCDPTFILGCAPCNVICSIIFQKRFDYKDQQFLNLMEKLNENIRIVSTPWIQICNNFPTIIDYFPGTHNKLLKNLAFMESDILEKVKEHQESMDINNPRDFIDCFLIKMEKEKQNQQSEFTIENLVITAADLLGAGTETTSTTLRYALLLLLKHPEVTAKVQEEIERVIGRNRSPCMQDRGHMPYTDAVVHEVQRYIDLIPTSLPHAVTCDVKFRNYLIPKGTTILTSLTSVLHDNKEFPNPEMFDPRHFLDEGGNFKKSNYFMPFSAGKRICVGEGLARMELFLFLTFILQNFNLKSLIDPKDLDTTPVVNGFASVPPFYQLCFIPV", "experiment": "Cytochrome P450 inhibition CYP2C19", "type": "in vitro ADME"}, "in vivo": {"experiment": "in vivo", "conditions": "Sprague-Dawley, rat; for AUC(0-t) / Cmax: po"}, "[2]": {"experiment": "Rat blood stability in vitro", "conditions": "male, Sprague Dawley, freshly collected whole blood"}, "[3]": {"experiment": "Rat PK, compartmental analysis"}, "CYP1A2": {"target": "CYP1A2 (Homo sapiens, UniProt P05177)", "sequence (P05177 whole entry)": "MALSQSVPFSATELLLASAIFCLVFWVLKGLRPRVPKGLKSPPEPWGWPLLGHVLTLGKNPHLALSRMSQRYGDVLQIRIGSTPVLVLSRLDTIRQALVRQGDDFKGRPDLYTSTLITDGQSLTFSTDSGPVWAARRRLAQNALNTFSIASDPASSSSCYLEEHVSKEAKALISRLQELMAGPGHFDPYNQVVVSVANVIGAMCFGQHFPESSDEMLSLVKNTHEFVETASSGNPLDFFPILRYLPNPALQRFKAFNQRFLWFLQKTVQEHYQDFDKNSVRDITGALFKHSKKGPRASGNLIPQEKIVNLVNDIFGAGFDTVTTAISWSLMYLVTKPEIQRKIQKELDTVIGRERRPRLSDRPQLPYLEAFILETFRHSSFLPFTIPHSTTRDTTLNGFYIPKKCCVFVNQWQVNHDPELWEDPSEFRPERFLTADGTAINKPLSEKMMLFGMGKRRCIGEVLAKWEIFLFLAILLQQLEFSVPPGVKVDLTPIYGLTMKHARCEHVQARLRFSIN", "experiment": "Cytochrome P450 inhibition CYP1A2"}}, "note": "Like-named read-outs stand apart in the source and are kept apart here."}
{"smiles": "FC1CCN(CCOc2ccc(C3CCC4(CC3)OOC3(OO4)C4CC5CC(C4)CC3C5)cc2)CC1", "note": "(stereo not shown) [Compound E209]", "values": [{"measurement": "IC50", "setting": "[1]; DD2, strain Dd2 (chloroquine resistant), mean ± SD n=3", "value": "7.7 ± 1.5", "unit": "nM"}, {"measurement": "IC50", "setting": "[1]; HB3, strain HB3 (chloroquine sensitive), mean ± SD n=3", "value": "4.2 ± 0.8", "unit": "nM"}, {"measurement": "IC50", "setting": "[1]; NF54, strain NF54 (chloroquine sensitive), mean ± SD n=3", "value": "5.2 ± 1", "unit": "nM"}, {"measurement": "IC50", "setting": "[1]; TM90C2B, strain TM90C2B (chloroquine resistant), mean ± SD n=3", "value": "7.3 ± 1.4", "unit": "nM"}, {"measurement": "IC50", "setting": "[1]; read-out: mean IC50 range, panel of 10 sensitive and multidrug-resistant P. falciparum isolates", "value": "2.9 to 14", "unit": "nM"}, {"measurement": "IC50", "setting": "[1]; strain 7G8 (chloroquine resistant), mean ± SD n=3", "value": "2.9 ± 0.6", "unit": "nM"}, {"measurement": "IC50", "setting": "[1]; strain D6 (chloroquine sensitive), mean ± SD n=3", "value": "8.5 ± 1.6", "unit": "nM"}, {"measurement": "IC50", "setting": "[1]; strain FCB (chloroquine resistant), mean ± SD n=3", "value": "14 ± 2.7", "unit": "nM"}, {"measurement": "IC50", "setting": "[1]; strain K1 (chloroquine resistant), mean ± SD n=3", "value": "4.2 ± 0.8", "unit": "nM"}, {"measurement": "IC50", "setting": "[1]; strain V1/S (chloroquine resistant), mean ± SD n=3", "value": "4.2 ± 0.8", "unit": "nM"}, {"measurement": "inhibitory activity", "setting": "Cav1.2 channel", "value": "no inhibitory activity"}, {"measurement": "IC50", "setting": "CYP2C19", "value": "> 20", "unit": "µM"}, {"measurement": "NOAEL", "setting": "in vivo; female", "value": 50, "unit": "mg/kg/day"}, {"measurement": "AUC(0-t)", "setting": "in vivo; female, 50 mg/kg", "value": 14800, "unit": "ng·h/mL"}, {"measurement": "Cmax", "setting": "in vivo; female, 50 mg/kg", "value": 1070, "unit": "ng/mL"}, {"measurement": "NOAEL", "setting": "in vivo; male", "value": 100, "unit": "mg/kg/day"}, {"measurement": "AUC(0-t)", "setting": "in vivo; male, 100 mg/kg", "value": 19600, "unit": "ng·h/mL"}, {"measurement": "Cmax", "setting": "in vivo; male, 100 mg/kg", "value": 1200, "unit": "ng/mL"}, {"measurement": "half-life at 1 µM", "setting": "[2]", "value": 780, "unit": "min"}, {"measurement": "Absorption rate constant Ka", "setting": "[3]; PO 9 mg kg^−1", "value": 0.31, "unit": "h⁻¹"}, {"measurement": "clearance", "setting": "[3]; male, Sprague-Dawley, plasma, other: intravenous and oral, fitted together", "value": 26.7, "unit": "mL/min/kg"}, {"measurement": "IC50", "setting": "CYP1A2", "value": "> 20", "unit": "µM"}]}
